Patent publication US10391166B2, “Short oligonucleotides as vaccine adjuvants and therapeutic agents” (priority 2013, dated 2019)
“Also recorded” adds a separate entry of the source.

Tests used:
[1] = Dose range-finding oral toxicity study in rats (single dose and 7 days); assay type: in vivo, Sprague-Dawley rats
Description: The objective of this study was to determine potential toxic effects, to identify potential target organs of toxicity, and to determine a maximum tolerated dose (MTD) and a no observable adverse effect level (NOAEL) for the endpoints examined following daily oral gavage of SB 44 for 7 consecutive days to adult male and female Sprague-Dawley rats. Information from this study was used to design subsequent toxicity studies and determine the suitability of the proposed human dose. This study consisted of Phase A and Phase B. Phase A was a dose range-finding study. Two rats (1 male and 1 female) were included in the study. Animals were given a single dose of SB 44 at 1000 mg/kg by oral gavage (po) and observed for 3 days. […] No necropsy was performed.
In Phase B, rats (3/sex/group) were given a daily oral dose of SB 44 at 50, 250, and 1000 mg/kg/day for 7 consecutive days. A control group (3/sex) was also given a daily oral dose of the vehicle, 50% PEG 400 plus 50% HPMCT (0.1% hydroxypropyl methylcellulose and 0.2% Tween 80 in sterile water), at an equivalent volume for 7 days. Animals were sacrificed on Day 8. The following parameters were evaluated: mortality/morbidity, clinical observations, body weights, clinical pathology (hematology and serum chemistry), organ weights, and, at necropsy, macroscopic observations and microscopic histopathology for liver tissues.

RIG-I = molecular target: T1, RIG-I (Homo sapiens, UniProt O95786); assay: IRF3-luciferase assay in HEK 293 cells transfected with RIGI; assay type: cell-based; conditions: 100 or 500 nM; 8 h or 16 h incubation
T1 construct: expressed in transfected cells; host or cells: HEK 293
T1 sequence (O95786 1-925): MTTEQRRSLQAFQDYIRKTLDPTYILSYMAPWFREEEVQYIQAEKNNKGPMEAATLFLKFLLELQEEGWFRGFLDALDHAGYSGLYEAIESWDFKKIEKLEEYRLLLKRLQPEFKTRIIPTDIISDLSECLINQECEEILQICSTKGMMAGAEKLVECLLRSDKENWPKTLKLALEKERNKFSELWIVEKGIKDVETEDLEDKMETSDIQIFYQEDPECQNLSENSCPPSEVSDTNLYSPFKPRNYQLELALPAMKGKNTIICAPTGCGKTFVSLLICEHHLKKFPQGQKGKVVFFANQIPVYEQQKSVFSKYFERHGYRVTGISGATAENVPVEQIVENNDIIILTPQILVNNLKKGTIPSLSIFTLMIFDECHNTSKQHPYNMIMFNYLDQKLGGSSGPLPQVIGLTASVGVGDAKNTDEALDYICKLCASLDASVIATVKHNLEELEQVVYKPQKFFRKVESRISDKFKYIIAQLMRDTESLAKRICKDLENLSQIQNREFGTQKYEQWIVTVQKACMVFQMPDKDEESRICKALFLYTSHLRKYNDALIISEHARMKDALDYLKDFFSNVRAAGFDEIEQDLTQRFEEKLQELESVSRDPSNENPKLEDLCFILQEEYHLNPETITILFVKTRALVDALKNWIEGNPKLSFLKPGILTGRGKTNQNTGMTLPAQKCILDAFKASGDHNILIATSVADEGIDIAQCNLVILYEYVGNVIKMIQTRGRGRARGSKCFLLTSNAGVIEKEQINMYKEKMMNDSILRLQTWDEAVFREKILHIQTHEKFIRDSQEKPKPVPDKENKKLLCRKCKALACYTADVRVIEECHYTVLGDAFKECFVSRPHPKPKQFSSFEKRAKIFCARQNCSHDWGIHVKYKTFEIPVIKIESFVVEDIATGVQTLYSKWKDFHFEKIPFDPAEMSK
Method: (§1) HEK 293 cells were transfected with RIGI, pcDNA and IRF3-luciferase. The cells were then incubated with SB 44 (100 or 500 nM). Following 8 h or 16 h incubation, Luciferase activity was measured as described previously. The Luciferase assay results are presented as mean±S.D. from three independent experiments.

[2] = 14-day oral toxicity study in rats with two-week recovery; assay type: in vivo, Sprague-Dawley rats
Method: Necropsies were performed on Day 15 for rats in the main study group and on Day 28 for rats in the recovery group.

[3] = liver microsomes
Method: SB 44 (10 μM) was incubated with a mix containing S9 fraction (pooled from human) (1 mg/ml), NADPH (1.3 mM) UDPGA (5 mM), Alamethicin (10 μg/ml) in 1 ml of 1×PBS buffer. […] The metabolite samples were evaluated by HPLC and LC/MS analysis.

[4] = Bioreversibility of SB 44 in serum; assay type: in vitro ADME
Description: Similar to the serum-mediated conversion of SB 44 to SB 40, in the case of microsomes liver esterases appear to be the major metabolizing enzymes involved in the hydrolytic conversion of SB 44 to SB 40. […] The facile bioconversion of SB 44 to SB 40 in liver and plasma is also consistent with broad substrate specificity of the ubiquitous esterase enzymes.

Vero = assay: MTT cytotoxicity assay, Vero cells; assay type: cell-based; conditions: 24-hour incubation
Description: SDS was used as a positive cytotoxic control.

IL-1β = assay: Mature IL-1β ELISA in mouse bone marrow derived primary macrophages; assay type: cell-based; conditions: alone or with MDP or BCG, caspase blockade with ZVAD-fmk
Method: C57Bl/6 mouse bone marrow derived primary macrophages were treated with SB 1A or SB 1B alone, MDP alone or in combination as indicated for 4 hrs. BCG was used for infection for 4 hrs and supernatants collected 18 hr later titrated for mature IL1β using ELISA. Macrophages were first treated with ZVAD-fmk (2 hrs) for caspase blockade followed by activation with SB 1A and SB 1B (4 hrs) and BCG infection (4 hrs). Cytokine was measured 18 hrs later.

M. tuberculosis = test system: M. tuberculosis; set-up: species or system C57Bl/6 mice; conditions: mouse, in vivo
[5] = test system: C57Bl/6 mouse bone marrow derived macrophages; assay type: cell-based
NF-kB = assay: NF-kB-luciferase assay in HEK 293 cells transfected with RIGI and Nod2; assay type: cell-based; conditions: 10 μM; 12 h incubation
Method: as §1, with “pcDNA, Nod2” for “pcDNA”, “NF-kB-luciferase.” for “IRF3-luciferase.”, “(10 μM).” for “(100 or 500 nM).”, “12” for “8 h or 16”

interferon-β (IFN-β) = assay: IFN-β production from human lung epithelial A549 cells; assay type: cell-based

COC1C(OP(=O)(OCC2OC(n3cnc4c(N)ncnc43)CC2O)SCOC(=O)OC(C)C)C(CO)OC1n1ccc(=O)[nH]c1=O (mixture of isomers) [SB 44]
NOAEL ([1]; daily oral administration for 7 consecutive days): at least 1000 mg/kg/day | adverse effects ([1]; daily oral gavage 50, 250, 1000 mg/kg/day for 7 days): no overt biologically or toxicologically significant adverse effects | clinical observation after single dose ([1]; single dose 1000 mg/kg po, observed 3 days): appeared normal | IRF3 induction following activation of RIG-I (RIG-I): IRF3 induction following activation of RIG-I | no observed effect level (NOEL) ([2]; 14-day oral study): 50 mg/kg/day | overt toxicity ([2]; 50, 200, 500 mg/kg/day oral for 14 days): did not cause overt toxicity | thymus microscopic change ([2]; males and females at 200 and 500 mg/kg/day): Minimal to mild increases in thymic phagocytic macrophages | minor metabolites [3]: < 10% | rate differences in conversion of Rp- and Sp-isomers [3]: no significant rate differences | desulfurized product ([3]; MS analysis): < 5% | conversion of prodrug to SB 40 ([3]; up to eight hours): stereospecific conversion to the dinucleotide Rp, Sp-SB 40 | conversion rates of the individual isomers [4]: almost equal rates | CC50 (Vero): > 1 mM | induction of mature IL-1β (IL-1β): induce IL-1β only in combination with either MDP or intact BCG bacilli | Mtb counts of lungs (M. tuberculosis): reducing Mtb counts of lungs better than either BCG or MDP+BCG | Mtb counts of spleens (M. tuberculosis): better than BCG vaccine in reducing Mtb counts of spleens | adjuvant efficacy with BCG vaccine against tuberculosis (M. tuberculosis): better than muramyl dipeptide (MDP) as adjuvants | anti-TB T cell function of mice (M. tuberculosis): dramatic increase in anti-TB T cell function of mice | memory precursor T cells (MPECs) (M. tuberculosis): induces better memory precursor T cells (MPECs) than BCG vaccine | tetramer specific CD8 T cells (M. tuberculosis): comparable levels of tetramer specific CD8 T cells | antigen presentation (Antigen-85B) in macrophages [5]: enhance antigen presentation in vitro | induction of NF-kB activity via RIGI and Nod2 activation (NF-kB): induction of NF-kB activity; also recorded: induction of the transcription factor, NF-KB | production of IFN-β (interferon-β (IFN-β)): induces production of interferon-β
